Assay results reported in article PMC7641127, “MCL1 binds and negatively regulates the transcriptional function of tumor suppressor p73” (Cell Death & Disease, 2020).
Like-named read-outs stand apart in the source and are kept apart here. Blank lines part the entries; values can stand above or below the compound they belong to. No end group written: not given here.

Tests used:
[1] = target: T1, recombinant MCL1 (Homo sapiens, UniProt Q07820); test: Competitive fluorescence polarization assay (FPA), MCL1 with F-BAK probe; format: binding
T1 construct: made in house; host or cells: E. coli BL21 (DE3)
Excerpt: (§1) We next sought to determine which core domain, the DBD or the TD, of p73 mediates binding to MCL1. […] Therefore, we expressed and purified recombinant p73DBD and tested its ability to associate with MCL1 using competitive fluorescence polarization assay (FPA) analysis and NMR chemical shift perturbation (CSP) studies (Fig. 2a, Supplementary Fig. 1). FPA is a biochemical assay that can either determine the binding constant between a recombinant protein and a fluorescently labeled small molecule or peptide (i.e. direct FPA as a measure of KD) or it can determine the concentration in which an unknown binding partner can compete with bound fluorescently labeled ligand (competitive FPA as a measure of IC50).
In a flat-bottom, untreated black 96-well microplate (ThermoScientific), 80 μL recombinant protein is incubated with 10 μL 10× unlabeled peptide or small molecule inhibitor shaking at 300 rpm for 20 min to allow for binding. Once complete, 10 μL of 10× FITC-peptide is added per well. The plate is covered with an opaque lid to shake for an additional 40 min. After 1 h incubation is complete, the plate is read using the FP-Fluorescein setting (1.0 s, CW lamp filter—F485, emission filter, F535) on a Perkin Elmer Victor X5 plate reader. The buffer used for all assays is 1× PBS, pH 7.4. All experiments were completed in technical and biological triplicate. All data plotted in Fig. 2 is one representative assay in technical triplicate.

[2] = system: H1299 cells; test: TaqMan RT-qPCR of p73 target genes in H1299; format: cell-based, human; details: 24 h, normalized to GAPDH, biological and technical triplicate
Description: Four known p73 target genes were analyzed by TaqMan RT-qPCR. After a baseline was established, H1299 cells were treated with b an siRNA targeting MCL1 (48 h) or c 2 μM MCL1 inhibitor A1210477 (24 h). […] All experiments were performed in biological and technical triplicate. Bar graphs shown with SEM of one representative assay. A Student’s t-test was applied to each target gene for each treatment for statistical analysis, p-values: *p < 0.05, **p < 0.01, ***p < 0.001, ****p < 0.0001.
RNA was purified from human cancer cell lines for RT-qPCR with the SurePrep TrueTotal RNA Purification Kit (Fisher BioReagents, BP2800-50) by the manufacturer’s protocol. The final concentration of purified RNA was measured using a Nanodrop 2000c spectrophotometer. Once RNA concentration was determined, a single step cDNA synthesis reaction was made in TempAssure PCR 8-Tube Strips (USA Scientific, 1402-2500) in technical duplicate as follows: 100 ng RNA, 16 μL nuclease-free water (Ambion, 1512103), and 4 μL qScript cDNA SuperMix (Quanta BioSciences Inc., 84034). […] Concentration was determined after the cDNA synthesis on the Nanodrop 2000c spectrophotometer. cDNA was diluted to 25 ng/μL into Molecular Biology Grade Water (Corning, 46-000-CM) and stored at −20 °C for future use. […]
All RT-qPCR reactions were performed in biological triplicate. […] All target genes analyzed were normalized to GAPDH. […]

[3] = system: PC-3 cells; test: TaqMan RT-qPCR of p73 target genes in PC-3; format: cell-based, human; details: normalized to GAPDH, biological and technical triplicate
Description: All RT-qPCR reactions were performed in biological triplicate. A master mix for each target or housekeeping gene was made with 15 μL RNAse-free water, 3 μL 20× RT-qPCR Primer Mix (ThermoScientific), 12 μL 25 ng/μL cDNA, and 30 μL TaqMan Universal Master Mix II, with UNG (Applied Biosystems, 2020-02-29). The mix was aliquoted out 20 μL/well in technical triplicate with the final concentration of cDNA at 100 ng/reaction. PCR reactions were performed on an Applied Biosystems ViiA 7 Real-Time PCR System for 40 cycles starting at 25 °C. Each cycle is 50 °C for 2 min, 95 °C for 10 min, and 15 s, and 60 °C for 1 min. Temperature shifts at 1.6 °C/s. All data are collected and analyzed using Applied Biosystems QuantStudio Real-Time PCR Software. All target genes analyzed were normalized to GAPDH. All primers had FAM-MGB probes. All TaqMan primers were ordered from ThermoFisher Scientific with the target gene and Assay ID included: CDKN2A/p21 (Hs00355782_m1), PMAIP1/NOXA (Hs00560402_m1), GADD45A (Hs00169255_m1), BBC3/PUMA (Hs00248075_m1), GAPDH (Hs02758991_g1).
Four known p73 target genes were analyzed by TaqMan RT-qPCR. After a baseline was established, cells were treated with b an siRNA targeting MCL1 or c 2 μM MCL1 inhibitor A1210477. […] All experiments were performed in biological and technical triplicate. Bar graphs shown with SEM of one representative assay. […]

[4] = system: PC-3 cells; test: Annexin V/PI staining with FACS; format: cell-based, human; details: N=4
Description: Cells were seeded in a six-well plate and treated through various treatments to modulate MCL1 or p73 expression as they were in previous experiments. After the 24 or 48 h treatment, cells were collected through trypsin dissociation and washed twice with sterile DPBS. Cell number was counted on a BioRad Automated Cell Counter. After final wash, cells were pelleted at 1000×g for 10 min. The cell pellet was resuspended in 1× Annexin V binding buffer (BD Pharmingen, 556454) and 5 × 10^5 cells were transferred to a FACS tube containing 5 μL propidium iodide (PI) staining solution (BD Pharmingen, 51-66211E) and 5 μL FITC-Annexin V (BD Pharmingen, 556419). Cells were incubated for 15 min in the dark. FACS was collected on a BD LSRFortessa and analyzed using FlowJo v10. Compensation controls used for analysis include unstained cells and cells stained for each individual fluorophore (FITC-Annexin V and Cy5-PI). Gating strategy eliminated cell debris and doublets through forward and side scatter plots.
Supplemental Fig 3. […] Cells were stained with Annexin V and Propidium Iodide (PI) to determine the apoptotic cell population. […] All plots shown here are representative plots of the data set, N=4.

[5] = system: PC-3 cells; test: Cellular fractionation and western blot after cisplatin; format: cell-based, human; details: low dose (printed 5 mM), 24 hours, vs 0.5% DMF, western blot
Description: Cellular localization was performed using the NE-PER Nuclear and Cytoplasmic Extraction Reagent Kit (ThermoScientific, 78833) per the manufacturer’s protocol. The western blot quantification analysis was completed in the Image Lab 6.0.1 software using the Adjusted Volume tool. All assays were completed in biological triplicate with one representative image for each treatment group and/or cell line.
Cells were fractionated in cytosolic and nuclear compartments. Protein localization was analyzed through Western Blot analysis. Lamin A/C and GAPDH were used for fractionation controls. Band quantifications using the adjusted volume for each individual band are below for reference. All paired samples are normalized to the WCL treated with DMF alone.

[6] = target: T1, recombinant MCL1; test: Direct FPA of FITC-labeled peptides with MCL1; format: binding; details: N-terminally FITC-labeled peptide with recombinant MCL1; 1x PBS pH 7.4; 30 min; at or approaching limit of detection of probe
Excerpt: as §1
The buffer used for all assays is 1× PBS, pH 7.4. All experiments were completed in technical and biological triplicate.

[7] = system: 15N MCL1; test: 2D [15N,1H]-HSQC NMR chemical shift perturbation of 15N MCL1; format: binding, human; details: 50 μM 15N MCL1 + 200 μM ligand; 1x PBS pH 6.8; significant CSP = >2SD above mean (0.046 ppm)
Description: Fig. 3 P73 binds to the BH3-binding groove of MCL1. a 2D [^15N, ^1H]-HSQC spectra of 50 μM ^15N MCL1 + 2% DMSO (black contours) or 50 μM ^15N MCL1 + 200 μM p73_23mer TD-derived peptide (red contours). Amino acids with significant CSP (Δδ > 0.046 ppm: G217, F228, N239, D241, D242, H252, I264, V265, L267, I268, E292, L298, V299, T301, D304, and H320) or residues that were unable to be identified in the bound spectra (V216, G219, V220, V243, […], S247, R263, G271, R303, K308, and F315) are labeled for reference. b CSP quantified as a function of Δδ ppm for each amino acid residue. The first dotted line indicates 1SD from the mean (0.023) and the solid line indicates 2SD from the mean (0.046). Amino acids with significant CSP were identified as >2SD above the mean (blue). Amino acids that were unable to be identified in the bound spectra were set to −0.01 to differentiate them from peaks with no CSP (red). […]
The NMR HSQC spectra were acquired using a Bruker 600 MHz magnet at the Central Alabama High Field NMR Facility. […] The resulting spectra were analyzed using Computer-Aided Resonance Assignment (CARA) and the peak lists were exported to Microsoft Excel for the CSP quantification and calculation of the mean and standard deviation. […]
Supplemental Fig 1. […] The two cut offs represent the 1 and 2 SD cut offs determined through the 50 µM 15N hMCL1 + 200 µM p7323mer spectra in Fig 2.

[8] = competitive FPA, 50 nM recombinant MCL1, 10 nM F-BAK, unlabeled peptide titration, 1x PBS pH 7.4, 20 min pre-incubation + 40 min, mean ± SD, biological and technical triplicate, read-out: FPA IC50

T1 sequence (Q07820 whole entry): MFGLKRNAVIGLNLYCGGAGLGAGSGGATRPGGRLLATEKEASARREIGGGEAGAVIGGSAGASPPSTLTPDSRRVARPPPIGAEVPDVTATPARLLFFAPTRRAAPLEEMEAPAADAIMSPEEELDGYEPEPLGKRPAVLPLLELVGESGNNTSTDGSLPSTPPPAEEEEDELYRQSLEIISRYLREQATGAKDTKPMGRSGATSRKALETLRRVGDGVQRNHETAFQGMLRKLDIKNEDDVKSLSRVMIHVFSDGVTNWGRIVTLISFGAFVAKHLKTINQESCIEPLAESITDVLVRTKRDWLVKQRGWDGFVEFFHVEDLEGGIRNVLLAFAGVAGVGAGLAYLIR

Compound: Cc1nn(C)c(COc2ccc(N3CCN(S(=O)(=O)N(C)C)CC3)cc2)c1-c1cccc2c(CCCOc3cccc4ccccc34)c(C(=O)O)n(CCN3CCOCC3)c12 [A1210477]
IC50 [1]: 2590 nM
p73 target gene expression (p21, NOXA, GADD45, PUMA) ([2]; 2 μM): significant increases in gene expression in at least three of the four p73 target genes
p73 target gene expression (p21, NOXA, GADD45, PUMA) ([3]; 2 μM): significant increases in gene expression in at least three of the four p73 target genes
Apoptotic induction, Annexin V/PI ([4]; 2 μM, 24 hours, vs 0.5% DMSO): no increase in apoptotic induction

Compound: N.N.[Cl][Pt][Cl] [cisplatin]
MCL1 protein levels in cytoplasmic and nuclear fractions [5]: increase MCL1 levels in both the cytoplasmic and nuclear compartments
p73 target gene expression (p21, NOXA, GADD45, PUMA) ([2]; 10 μM): statistically significant increases in expression in at least three of the four p73 target genes
p73 target gene expression (p21, NOXA, GADD45, PUMA) ([3]; 5 μM, 24 h): statistically significant increases in expression in at least three of the four p73 target genes
Apoptosis, Annexin V/PI, positive control ([4]; 50 µM): significant increase in apoptosis

IC50 [1, 8]: > 10000 nM
Compound: DEDTYYLQVR-NH2 [β1]

Kd [6]: ≤ 5 nM
IC50 ([1]; competitive FPA, 50 nM recombinant MCL1, 10 nM F-BAK, unlabeled peptide titration, 1x PBS pH 7.4, 20 min pre-incubation + 40 min, mean ± SD, biological and technical triplicate, SD, read-out: FPA IC50): 982 ± 195 nM
Compound: GRENFEILMKLKESLELMELVPQ-NH2 [p73_23mer]

IC50 [1, 8]: > 10000 nM
Compound: VPQPLVDSYRQQQQLLQR-NH2 [α2]

Compound: p73DBD: recombinant p73 DNA-binding domain alone, amino acids 112–311
Chemical shift perturbation of MCL1 [7]: No amino acids in this spectra exhibited significant shifts
Association with MCL1 in competitive FPA ([1]; 50 nM recombinant MCL1, 10 nM F-BAK, titration of unlabeled protein): Neither NMR nor competitive FPA analysis exhibited significant changes
